Experimental data from patent US10004791B2, “Peptide vaccines against PCSK9” (AFFIRIS AG, priority 2014, dated 2018).

Tests used:
[1] = Total cholesterol assay in plasma of immunized mice (15 μg net peptide, four injections); format: in vivo, BALB/c mice; details: for TC in % (FIG. 2A) / TC in % (FIG. 2B): mean total cholesterol, single AA exchange; for TC in % (FIG. 2A): n=3 mice/group, negative control group (irrelevant peptide) set as 100%; for TC in % (FIG. 2B) / TC in % multiple AA exchanges (FIG. 2C): n=5 mice/group, negative control group set as 100%; for TC in % multiple AA exchanges (FIG. 2C): total cholesterol
Description: (§1) The peptides were conjugated via the heterobifunctional linker GMBS (4-Maleimidobutyric acid N-hydroxysuccinimide ester) to KLH (Keyhole Limpet Hemocyanin).
[…] Mice had access to food and water ad libitum and were kept under a 12 h light/dark cycle. The age of mice at the beginning of experiments was 8 to 10 weeks.
(§2) Mice were injected four times in 2 week intervals with 15 μg of net peptide coupled to KLH and adsorbed to Alhydrogel as adjuvant in a volume of 1 ml in total.
(§3) Blood was taken approximately 2 weeks after the final injection.
(§4) All plasma samples were collected two weeks after the final immunization and equality treated. Total cholesterol (TC) measurements were performed simultaneously for all samples and side by side compared to their related controls (originals sequence and negative control). The simultaneous quantitative measurement of the plasma TC levels in mg/dL was measured by LabAssay™ Cholesterol Kit (Wako). In details, upon incubation with the chromogen reagent containing cholesterol esterase, the cholesterol esters in the samples were decomposed into free cholesterol and fatty acids. Subsequently the free cholesterol was oxidized by the cholesterol oxidase, leading to the simultaneously release of hydrogen peroxide. The produced hydrogen peroxide let DAOS and 4-Aminoantipyrin oxidize and condensate quantitatively by peroxidase (HRP), which produced blue pigment. Optical density was measured at 600 nm and quantification of the TC was calculated according to a standard curve.

[2] = test system: human PCSK9 protein; assay: Protein ELISA: titers of vaccine-induced PCSK9-specific antibodies in plasma of immunized mice; format: in vivo, BALB/c mice; details: for titers against huPCSK9 (ODmax/2): mean titer, n=5 BALB/c mice/group, s.c. 4 x 15 μg net peptide coupled to KLH, Alhydrogel, plasma 2 weeks after final injection, titer = serum dilution at 50% ODmax; for capacity to elicit a humoral immune response targeting PCSK9: result in words
Description: as §1
5 BALB/c mice were subcutaneously immunized. Mice had access to food and water ad libitum and were kept under a 12 h light/dark cycle. The age of mice at the beginning of experiments was 8 to 10 weeks.
as §2, §3
To determine the immunogenicity of the vaccines, and thus to identify the amount of PCSK9 specific antibodies in the plasma of immunized animals, ELISA immunoassay was performed. The ELISA immunoassay generates a signal which can be easily quantified and represents a quantitative measure of the amount of vaccine induced PCSK9-specific antibodies. Thus the titers as measured by ELISA correlate directly with the amount (μg/ml) of target specific antibodies in the plasma sample of treated animals. All plasma samples were collected two weeks after the final immunization and equality treated. In order to have a direct comparison, the quantitative evaluation by the PCSK9 Protein ELISA immunoassay of the vaccine induced PCSK9-specific antibodies and the comparison to their relative controls (originals sequence and negative control) was performed for all samples simultaneously. For this purpose, ELISA plates were coated with recombinantly expressed human PCSK9 protein. Unspecific binding was blocked by incubation with blocking buffer (1% BSA in PBS). Appropriate serum dilutions (with a starting dilution of 1:100) were added to the wells, serially diluted 1:2 fold (12 dilution steps) and incubated for approximately 1 hour. Bound antibodies were detected by incubation with anti-mouse IgG antibody, ABTS was added as substrate and the OD at 405 nm was measured. As negative control sera from the control group injected with an irrelevant peptide were analyzed. The titers were defined as the dilution of the serum where 50% of the ODmax in the assay is reached.

[3] = test system: huPCSK9; assay: Inhibition of furin cleavage of huPCSK9 by plasma from vaccinated mice (SDS-PAGE / Western blot); format: biochemical, human; details: 4 μl mouse plasma, 250 ng biotinylated huPCSK9, 2 U furin overnight RT; FIG. 3; result in words
Description: The furin cleavage reaction was performed with 2 Units Furin (˜110 ng) (New England Biolabs) in PCSK9 buffer containing 100 mM Hepes Buffer pH 7.5, 5% Triton-X and 1 mM CaCl. In details, 4 μl mouse plasma from VARIOTOPE®s vaccinated mice was incubated with 250 ng biotinylated huPCSK9 (BPS Bioscience) in PCSK9 buffer for 1 h at room temperature. Subsequently, 2U Furin (˜110 ng) (New England Biolabs) was added to the reaction solution and incubated over night at RT. The reaction product was analyzed by SDS-PAGE under reducing conditions.

[4] = Reduction of total cholesterol (TC) in treated animals, additional experiments (1 μg net peptide, five injections); format: in vivo, mice; details: 5 animals per group, 5 x 1 μg net peptide
Description: as §4
In order to evaluate the ability of selected VARIOTOPE® vaccine candidates to reduce TC and to compare the magnitude of TC reduction in VARIOTOPE® treated animals with the TC reduction in animals treated with a vaccine containing the original sequence, 5 to 10 mice per group were injected five times in 2 week intervals with vaccines containing 1 μg of net peptide. […]

| Substance | titers against huPCSK9 (ODmax/2) [2] | further results |
| --- | --- | --- |
| 1 (PEEDGTRFHRQASK) [compound 1] | 12074 | TC in % (FIG. 2A) [1]: 81%; TC in % (FIG. 2B) [1]: 89%; TC in % multiple AA exchanges (FIG. 2C) [1]: 81% |
| 2 (AEEDGTRFHRQASK) [compound 2] | 36869 |  |
| 3 (PAEDGTRFHRQASK) [compound 3] | 2774 |  |
| 4 (PEEDGTRFARQASK) [compound 4] | 21494 |  |
| 5 (PEEDGTRFHAQASK) [compound 5] | 33442 |  |
| 6 (PEEDGTRFHRAASK) [compound 6] | 22475 |  |
| 7 (PEEDGTRFHRQAAK) [compound 7] | 15676 |  |
| 8 (PEEDGTRFHRQASA) [compound 8] | 23638 |  |
| 9 (TEEDGTRFHRQASK) [compound 9] | 23944 |  |
| 10 (PQEDGTRFHRQASK) [compound 10] | 29228 | inhibition of furin cleavage of mature PCSK9 (aa153-692) / formation of truncated PCSK9 (aa219-692, ~50 kDa) by induced antibodies [3]: inhibit the formation of truncated furin cleaved PCSK9; TC in % (FIG. 2A) [1]: 78% |
| 11 (PKEDGTRFHRQASK) [compound 11] | 6610 |  |
| 12 (PEEDGSRFHRQASK) [compound 12] | 12636 |  |
| 13 (PEEDGTRFHQQASK) [compound 13] | 18490 |  |
| 14 (PEEDGTRFHKQASK) [compound 14] | 17795 |  |
| 15 (PEEDGTRFHMQASK) [compound 15] | 15556 |  |
| 16 (PEEDGTRFHREASK) [compound 16] | 18670 |  |
| 17 (PEEDGTRFHRRASK) [compound 17] | 28996 | inhibition of furin cleavage of mature PCSK9 (aa153-692) / formation of truncated PCSK9 (aa219-692, ~50 kDa) by induced antibodies [3]: inhibit the formation of truncated furin cleaved PCSK9; TC in % (FIG. 2A) [1]: 81% |
| 18 (PEEDGTRFHRKASK) [compound 18] | 30537 | inhibition of furin cleavage of mature PCSK9 (aa153-692) / formation of truncated PCSK9 (aa219-692, ~50 kDa) by induced antibodies [3]: inhibit the formation of truncated furin cleaved PCSK9; TC in % (FIG. 2A) [1]: 81% |
| 19 (PEEDGTRFHRQSSK) [compound 19] | 41310 |  |
| 20 (PEEDGTRFHRQATK) [compound 20] | 10813 |  |
| 21 (PEEDGTRFHRQANK) [compound 21] | 15303 |  |
| 22 (PEEDGTRFHRQALK) [compound 22] | 8694 |  |
| 23 (PEEDGTRFHRQASR) [compound 23] | 14722 | TC in % (FIG. 2A) [1]: 70% |
| 24 (PEEDGTRFHRQASL) [compound 24] | 19471 |  |
| 25 (KEEDGTRFHRQASK) [compound 25] | 19315 |  |
| 26 (PEWDGTRFHRQASK) [compound 26] | 840 |  |
| 27 (PEEDKTRFHRQASK) [compound 27] | 7154 |  |

| Substance | titers against huPCSK9 (ODmax/2) [2] | further results |
| --- | --- | --- |
| 28 (PEEDGTGFHRQASK) [compound 28] | 0 |  |
| 29 (PEEDGTRFSRQASK) [compound 29] | 33111 |  |
| 30 (PEEDGTRFTRQASK) [compound 30] | 9519 |  |
| 31 (PEEDGTRFVRQASK) [compound 31] | 11850 |  |
| 32 (PEEDGTRFGRQASK) [compound 32] | 822 |  |
| 33 (PEEDGTRFMRQASK) [compound 33] | 10651 |  |
| 34 (PEEDGTRFHPQASK) [compound 34] | 20318 |  |
| 35 (PEEDGTRFHSQASK) [compound 35] | 29223 |  |
| 36 (PEEDGTRFHRTASK) [compound 36] | 29984 | TC in % (FIG. 2B) [1]: 72% |
| 37 (PEEDGTRFHRQTSK) [compound 37] | 25826 |  |
| 38 (PEEDGTRFHRQASS) [compound 38] | 31481 |  |
| 39 (PEEDGTRFHRQAST) [compound 39] | 13172 |  |
| 40 (PEEDGTRFHRQASV) [compound 40] | 22678 |  |
| 41 (PEEDGSRFHKQASK) [compound 41] | 37296 | TC in % multiple AA exchanges (FIG. 2C) [1]: 66% |
| 42 (PEEDGSRFHMQASK) [compound 42] | 18599 |  |
| 43 (PEEDGSRFHRRASK) [compound 43] | 29435 |  |
| 44 (PEEDGSRFHRQATK) [compound 44] | 20684 | TC in % multiple AA exchanges (FIG. 2C) [1]: 74% |
| 45 (PEEDGSRFHRRATK) [compound 45] | 11097 |  |
| PEEDGTGFHRQASK [SEQ ID NO: 28] |  | capacity to elicit a humoral immune response targeting PCSK9 [2]: do not have the capacity to elicit a humoral immune response targeting PCSK9 |
| PEEDGTRFGRQASK [SEQ ID NO: 32] |  | capacity to elicit a humoral immune response targeting PCSK9 [2]: do not have the capacity to elicit a humoral immune response targeting PCSK9 |
| PEEDGTRFHRKASK [SEQ ID NO: 18] |  | inhibition of furin cleavage of mature PCSK9 (aa153-692) / formation of truncated PCSK9 (aa219-692, ~50 kDa) by induced antibodies [3]: inhibit the furin cleavage of the mature PCSK9 |
| PEEDGTRFHRQASL [SEQ ID NO: 24] |  | TC values in comparison to the control group (FIG. 4) ([4]; control group set as 100%, result in words): possesses the ability to reduce TC levels compared to the negative control; TC levels compared to the original peptide containing vaccine (FIG. 5) ([4]; original sequence group set to 0%, positive = higher TC): +9% |
| PEEDGTRFHRQASR [SEQ ID NO: 23] |  | inhibition of furin cleavage of mature PCSK9 (aa153-692) / formation of truncated PCSK9 (aa219-692, ~50 kDa) by induced antibodies [3]: inhibit the furin cleavage of the mature PCSK9 |
| PEEDGTRFHRRASK [SEQ ID NO: 17] |  | inhibition of furin cleavage of mature PCSK9 (aa153-692) / formation of truncated PCSK9 (aa219-692, ~50 kDa) by induced antibodies [3]: inhibit the furin cleavage of the mature PCSK9 |
| PEWDGTRFHRQASK [SEQ ID NO: 26] |  | capacity to elicit a humoral immune response targeting PCSK9 [2]: do not have the capacity to elicit a humoral immune response targeting PCSK9 |
| PQEDGTRFHRQASK [SEQ ID NO: 10] |  | inhibition of furin cleavage of mature PCSK9 (aa153-692) / formation of truncated PCSK9 (aa219-692, ~50 kDa) by induced antibodies [3]: inhibit the furin cleavage of the mature PCSK9 |
